Assay results reported in ChEMBL document CHEMBL5696442, “Discovery of type II inhibitors of TGFβ-activated kinase 1 (TAK1) and mitogen-activated protein kinase kinase kinase kinase 2 (MAP4K2)” (J Med Chem, 2015).

Legend:
[1] = molecular target: RAC-alpha serine/threonine-protein kinase (Homo sapiens) (UniProt P31749); assay: Inhibition of AKT1 (unknown origin) at 1 uM by Ambit Kinomescan binding assay relative to control
[2] = molecular target: T1, Serine/threonine-protein kinase 3 (Homo sapiens) (UniProt Q13188); assay: Inhibition of MST2 (unknown origin) at 1 uM by Ambit Kinomescan binding assay relative to control
T1 sequence (whole entry): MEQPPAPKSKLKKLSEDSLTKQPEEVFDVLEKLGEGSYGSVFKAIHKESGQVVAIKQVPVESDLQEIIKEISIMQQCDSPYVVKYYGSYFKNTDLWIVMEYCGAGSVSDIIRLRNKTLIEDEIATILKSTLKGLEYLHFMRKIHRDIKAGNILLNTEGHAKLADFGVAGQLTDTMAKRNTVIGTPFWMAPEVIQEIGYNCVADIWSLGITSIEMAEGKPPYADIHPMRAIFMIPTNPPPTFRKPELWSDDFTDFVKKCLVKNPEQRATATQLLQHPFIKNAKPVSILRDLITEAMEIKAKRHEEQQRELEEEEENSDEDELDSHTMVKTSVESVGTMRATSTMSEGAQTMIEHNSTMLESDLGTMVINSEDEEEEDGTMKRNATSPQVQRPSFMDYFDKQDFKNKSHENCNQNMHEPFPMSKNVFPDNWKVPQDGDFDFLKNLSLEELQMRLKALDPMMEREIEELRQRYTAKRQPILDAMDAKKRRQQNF

[3] = molecular target: Myosin light chain kinase, smooth muscle (Homo sapiens) (UniProt Q15746); assay: Inhibition of MYLK (unknown origin) at 1 uM by Ambit Kinomescan binding assay relative to control; values are per cent of control
Chain of Myosin light chain kinase, smooth muscle (Homo sapiens) (Q15746 whole entry): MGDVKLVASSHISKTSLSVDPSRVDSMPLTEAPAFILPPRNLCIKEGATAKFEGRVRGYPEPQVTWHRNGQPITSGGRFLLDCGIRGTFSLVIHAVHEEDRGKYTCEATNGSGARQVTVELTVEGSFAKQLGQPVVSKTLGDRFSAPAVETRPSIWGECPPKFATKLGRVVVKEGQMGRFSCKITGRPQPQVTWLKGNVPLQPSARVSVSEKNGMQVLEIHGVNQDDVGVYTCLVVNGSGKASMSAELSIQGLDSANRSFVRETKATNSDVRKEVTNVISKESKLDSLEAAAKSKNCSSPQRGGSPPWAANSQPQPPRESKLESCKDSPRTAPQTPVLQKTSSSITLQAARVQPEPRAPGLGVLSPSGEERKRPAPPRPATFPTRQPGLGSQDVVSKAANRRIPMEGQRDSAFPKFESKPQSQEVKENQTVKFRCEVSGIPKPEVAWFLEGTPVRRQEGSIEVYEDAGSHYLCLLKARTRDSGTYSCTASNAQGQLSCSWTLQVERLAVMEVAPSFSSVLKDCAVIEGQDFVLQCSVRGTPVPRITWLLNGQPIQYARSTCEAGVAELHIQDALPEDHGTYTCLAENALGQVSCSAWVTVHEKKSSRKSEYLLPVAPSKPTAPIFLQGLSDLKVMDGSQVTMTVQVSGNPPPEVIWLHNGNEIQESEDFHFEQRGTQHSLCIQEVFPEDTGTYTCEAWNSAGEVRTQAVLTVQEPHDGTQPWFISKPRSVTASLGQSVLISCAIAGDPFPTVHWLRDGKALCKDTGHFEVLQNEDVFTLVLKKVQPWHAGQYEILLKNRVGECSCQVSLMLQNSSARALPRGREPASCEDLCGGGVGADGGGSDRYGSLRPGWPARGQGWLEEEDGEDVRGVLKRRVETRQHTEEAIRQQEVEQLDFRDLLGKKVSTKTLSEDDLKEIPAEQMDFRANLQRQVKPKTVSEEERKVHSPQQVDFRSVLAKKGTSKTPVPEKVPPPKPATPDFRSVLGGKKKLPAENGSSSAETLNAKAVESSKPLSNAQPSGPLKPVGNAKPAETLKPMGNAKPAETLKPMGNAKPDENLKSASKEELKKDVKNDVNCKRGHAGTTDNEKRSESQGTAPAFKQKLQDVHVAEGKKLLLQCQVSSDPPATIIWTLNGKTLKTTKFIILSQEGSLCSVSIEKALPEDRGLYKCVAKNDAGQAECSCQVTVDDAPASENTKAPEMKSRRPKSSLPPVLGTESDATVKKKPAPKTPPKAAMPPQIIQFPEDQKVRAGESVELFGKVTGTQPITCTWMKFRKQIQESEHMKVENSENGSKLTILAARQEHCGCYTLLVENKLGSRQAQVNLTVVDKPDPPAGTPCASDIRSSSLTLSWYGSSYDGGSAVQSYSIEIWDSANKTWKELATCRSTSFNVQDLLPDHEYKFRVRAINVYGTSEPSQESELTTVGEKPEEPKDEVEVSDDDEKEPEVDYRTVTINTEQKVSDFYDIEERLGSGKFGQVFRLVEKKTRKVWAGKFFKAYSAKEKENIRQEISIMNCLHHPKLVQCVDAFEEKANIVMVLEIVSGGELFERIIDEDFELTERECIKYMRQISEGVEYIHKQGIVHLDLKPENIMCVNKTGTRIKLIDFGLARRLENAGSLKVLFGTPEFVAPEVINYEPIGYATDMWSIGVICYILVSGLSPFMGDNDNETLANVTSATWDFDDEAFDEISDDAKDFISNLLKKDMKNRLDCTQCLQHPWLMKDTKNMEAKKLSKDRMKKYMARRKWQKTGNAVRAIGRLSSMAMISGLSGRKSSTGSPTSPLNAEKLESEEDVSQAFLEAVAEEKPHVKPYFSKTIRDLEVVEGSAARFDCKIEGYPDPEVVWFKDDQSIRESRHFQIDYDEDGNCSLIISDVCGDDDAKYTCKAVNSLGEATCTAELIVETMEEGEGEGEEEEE

[4] = molecular target: Serine/threonine-protein kinase N2 (Homo sapiens) (UniProt Q16513); assay: Inhibition of PKN2 (unknown origin) at 1 uM by Ambit Kinomescan binding assay relative to control; values are per cent of control
[5] = molecular target: Serine/threonine-protein kinase BRSK1 (Homo sapiens) (UniProt Q8TDC3); assay: Inhibition of BRSK1 (unknown origin) at 1 uM by Ambit Kinomescan binding assay relative to control; values are per cent of control
Chain of Serine/threonine-protein kinase BRSK1 (Homo sapiens) (Q8TDC3 whole entry): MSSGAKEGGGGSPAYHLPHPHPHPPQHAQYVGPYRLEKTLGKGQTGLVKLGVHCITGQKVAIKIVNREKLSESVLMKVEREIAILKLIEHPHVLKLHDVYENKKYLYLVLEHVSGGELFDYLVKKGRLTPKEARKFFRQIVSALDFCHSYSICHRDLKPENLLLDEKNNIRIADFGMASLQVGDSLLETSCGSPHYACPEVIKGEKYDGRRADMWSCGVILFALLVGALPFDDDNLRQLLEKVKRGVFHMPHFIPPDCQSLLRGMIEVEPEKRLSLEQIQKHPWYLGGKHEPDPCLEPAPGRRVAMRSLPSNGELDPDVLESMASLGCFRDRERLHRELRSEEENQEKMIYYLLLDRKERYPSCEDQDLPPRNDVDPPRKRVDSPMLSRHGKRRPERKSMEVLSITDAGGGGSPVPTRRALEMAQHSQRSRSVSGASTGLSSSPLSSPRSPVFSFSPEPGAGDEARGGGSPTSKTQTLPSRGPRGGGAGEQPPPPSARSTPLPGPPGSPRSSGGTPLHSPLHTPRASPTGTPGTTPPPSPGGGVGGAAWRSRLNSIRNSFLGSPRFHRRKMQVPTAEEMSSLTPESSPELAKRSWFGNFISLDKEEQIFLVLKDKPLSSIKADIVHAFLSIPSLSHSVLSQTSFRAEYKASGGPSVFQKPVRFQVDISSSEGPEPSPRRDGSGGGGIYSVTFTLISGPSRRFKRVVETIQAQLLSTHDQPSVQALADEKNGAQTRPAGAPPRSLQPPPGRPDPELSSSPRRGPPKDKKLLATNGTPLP

[6] = molecular target: Fibroblast growth factor receptor 3 (Homo sapiens) (UniProt P22607); assay: Inhibition of FGFR3 (unknown origin) at 1 uM by Ambit Kinomescan binding assay relative to control; values are per cent of control
[7] = molecular target: T2, Inhibitor of nuclear factor kappa-B kinase subunit alpha (Homo sapiens) (UniProt O15111); assay: Inhibition of IKK-alpha (unknown origin) at 1 uM by Ambit Kinomescan binding assay relative to control; values are per cent of control
T2 sequence (whole entry): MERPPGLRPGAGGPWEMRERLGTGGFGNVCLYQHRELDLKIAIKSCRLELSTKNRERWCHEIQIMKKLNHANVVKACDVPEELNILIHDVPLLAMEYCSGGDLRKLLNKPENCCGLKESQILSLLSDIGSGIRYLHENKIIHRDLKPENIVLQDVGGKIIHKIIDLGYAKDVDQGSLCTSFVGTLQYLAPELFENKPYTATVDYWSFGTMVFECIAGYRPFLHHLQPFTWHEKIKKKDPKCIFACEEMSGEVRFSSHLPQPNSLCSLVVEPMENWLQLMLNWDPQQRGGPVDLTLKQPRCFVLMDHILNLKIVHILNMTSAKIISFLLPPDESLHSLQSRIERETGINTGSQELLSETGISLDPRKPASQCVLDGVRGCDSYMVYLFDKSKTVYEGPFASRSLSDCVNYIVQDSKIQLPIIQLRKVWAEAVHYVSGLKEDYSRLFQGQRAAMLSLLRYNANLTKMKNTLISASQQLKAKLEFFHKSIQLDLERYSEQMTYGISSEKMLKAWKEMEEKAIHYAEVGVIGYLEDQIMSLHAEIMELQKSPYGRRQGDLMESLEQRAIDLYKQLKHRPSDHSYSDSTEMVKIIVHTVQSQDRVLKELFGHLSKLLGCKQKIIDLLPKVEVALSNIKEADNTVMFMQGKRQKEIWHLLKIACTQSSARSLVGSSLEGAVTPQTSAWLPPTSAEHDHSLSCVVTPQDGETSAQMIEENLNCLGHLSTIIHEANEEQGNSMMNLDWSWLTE

[8] = test system: Mast/stem cell growth factor receptor Kit (Homo sapiens), P10721 [D816H]; assay: Inhibition of KIT D816H mutant (unknown origin) at 1 uM by Ambit Kinomescan binding assay relative to control; values are per cent of control
[9] = molecular target: Ankyrin repeat and protein kinase domain-containing protein 1 (Homo sapiens) (UniProt Q8NFD2); assay: Inhibition of ANKK1 (unknown origin) at 10 uM by Ambit Kinomescan binding assay relative to control
Chain of Ankyrin repeat and protein kinase domain-containing protein 1 (Homo sapiens) (Q8NFD2 whole entry, the tested form may be a part): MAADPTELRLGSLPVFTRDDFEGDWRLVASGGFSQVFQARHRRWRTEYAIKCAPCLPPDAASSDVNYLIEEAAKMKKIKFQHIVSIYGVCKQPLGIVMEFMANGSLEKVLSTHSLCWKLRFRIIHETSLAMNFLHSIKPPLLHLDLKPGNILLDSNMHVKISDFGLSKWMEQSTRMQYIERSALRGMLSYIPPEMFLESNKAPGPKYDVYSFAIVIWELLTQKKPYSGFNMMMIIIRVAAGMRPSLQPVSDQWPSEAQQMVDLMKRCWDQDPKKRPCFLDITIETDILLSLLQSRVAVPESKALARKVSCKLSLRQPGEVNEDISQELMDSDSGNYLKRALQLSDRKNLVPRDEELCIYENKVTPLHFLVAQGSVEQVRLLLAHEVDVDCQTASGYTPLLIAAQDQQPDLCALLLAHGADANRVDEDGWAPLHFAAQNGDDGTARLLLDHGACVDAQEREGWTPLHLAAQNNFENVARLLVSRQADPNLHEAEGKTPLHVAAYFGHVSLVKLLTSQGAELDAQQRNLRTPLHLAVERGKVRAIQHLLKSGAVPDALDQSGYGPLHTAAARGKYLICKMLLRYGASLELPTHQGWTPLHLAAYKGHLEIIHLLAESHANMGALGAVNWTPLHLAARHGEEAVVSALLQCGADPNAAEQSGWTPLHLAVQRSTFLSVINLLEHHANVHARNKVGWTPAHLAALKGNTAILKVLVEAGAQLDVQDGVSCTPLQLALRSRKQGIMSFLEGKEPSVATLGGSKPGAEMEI

[10] = molecular target: Ribosomal protein S6 kinase alpha-1 (Homo sapiens) (UniProt Q15418); assay: Inhibition of RSK1 domain1 Lys1 labeling site in human A-375 cells at 5 uM by KiNativ Profiling analysis relative to control; format: cell-based
Chain of Ribosomal protein S6 kinase alpha-1 (Homo sapiens) (Q15418 whole entry, the tested form may be a part): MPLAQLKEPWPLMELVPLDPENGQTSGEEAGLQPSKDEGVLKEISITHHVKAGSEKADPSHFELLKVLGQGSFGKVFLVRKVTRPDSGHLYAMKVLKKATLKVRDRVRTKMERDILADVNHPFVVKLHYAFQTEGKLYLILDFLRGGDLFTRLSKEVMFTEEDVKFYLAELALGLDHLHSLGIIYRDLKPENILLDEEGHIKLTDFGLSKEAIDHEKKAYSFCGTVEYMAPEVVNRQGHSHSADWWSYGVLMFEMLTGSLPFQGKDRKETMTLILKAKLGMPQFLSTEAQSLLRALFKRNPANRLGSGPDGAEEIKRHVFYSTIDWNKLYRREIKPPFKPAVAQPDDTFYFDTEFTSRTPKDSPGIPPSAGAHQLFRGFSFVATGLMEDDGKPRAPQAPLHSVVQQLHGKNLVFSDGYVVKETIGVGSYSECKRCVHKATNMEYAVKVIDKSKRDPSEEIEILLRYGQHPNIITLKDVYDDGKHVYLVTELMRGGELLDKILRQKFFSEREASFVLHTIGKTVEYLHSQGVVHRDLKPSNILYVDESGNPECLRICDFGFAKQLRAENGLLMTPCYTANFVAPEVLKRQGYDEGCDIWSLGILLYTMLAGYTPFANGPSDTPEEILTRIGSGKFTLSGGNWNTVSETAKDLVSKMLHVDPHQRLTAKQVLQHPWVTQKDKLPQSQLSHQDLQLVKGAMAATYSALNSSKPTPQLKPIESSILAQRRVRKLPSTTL

[11] = molecular target: TRAF2 and NCK-interacting protein kinase (Homo sapiens) (UniProt Q9UKE5); assay: Inhibition of ZC2/TNIK K2 labeling site in human Huh-7 cells at 10 uM by KiNativ Profiling analysis relative to control; format: cell-based
[12] = molecular target: Mitogen-activated protein kinase 14 (Homo sapiens, UniProt Q16539); assay: Inhibition of p38alpha K2 labeling site in human Huh-7 cells at 10 uM by KiNativ Profiling analysis relative to control; format: cell-based
Chain of Mitogen-activated protein kinase 14 (Q16539 whole entry): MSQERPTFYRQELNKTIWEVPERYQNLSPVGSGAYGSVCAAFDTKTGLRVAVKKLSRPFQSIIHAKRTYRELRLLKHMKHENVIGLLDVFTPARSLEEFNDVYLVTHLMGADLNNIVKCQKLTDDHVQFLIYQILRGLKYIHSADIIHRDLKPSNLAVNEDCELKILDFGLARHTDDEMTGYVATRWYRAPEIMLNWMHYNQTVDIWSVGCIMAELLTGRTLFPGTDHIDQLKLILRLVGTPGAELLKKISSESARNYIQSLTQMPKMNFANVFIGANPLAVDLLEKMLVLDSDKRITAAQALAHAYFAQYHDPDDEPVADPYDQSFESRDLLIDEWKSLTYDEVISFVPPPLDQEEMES

[13] = molecular target: AMPK alpha1/alpha2 (Homo sapiens) (UniProt P54646+Q13131); assay: Inhibition of AMPK alpha1/2 K2 labeling site in human Huh-7 cells at 1 uM by KiNativ Profiling analysis relative to control; format: cell-based
[14] = molecular target: Calcium/calmodulin-dependent protein kinase type II subunit delta (Homo sapiens) (UniProt Q13557); assay: Inhibition of CaMK2d Lys2 labeling site in human Huh-7 cell lysate at 1 uM by KiNativ Profiling analysis relative to control; format: subcellular

Chain of RAC-alpha serine/threonine-protein kinase (Homo sapiens) (P31749 whole entry): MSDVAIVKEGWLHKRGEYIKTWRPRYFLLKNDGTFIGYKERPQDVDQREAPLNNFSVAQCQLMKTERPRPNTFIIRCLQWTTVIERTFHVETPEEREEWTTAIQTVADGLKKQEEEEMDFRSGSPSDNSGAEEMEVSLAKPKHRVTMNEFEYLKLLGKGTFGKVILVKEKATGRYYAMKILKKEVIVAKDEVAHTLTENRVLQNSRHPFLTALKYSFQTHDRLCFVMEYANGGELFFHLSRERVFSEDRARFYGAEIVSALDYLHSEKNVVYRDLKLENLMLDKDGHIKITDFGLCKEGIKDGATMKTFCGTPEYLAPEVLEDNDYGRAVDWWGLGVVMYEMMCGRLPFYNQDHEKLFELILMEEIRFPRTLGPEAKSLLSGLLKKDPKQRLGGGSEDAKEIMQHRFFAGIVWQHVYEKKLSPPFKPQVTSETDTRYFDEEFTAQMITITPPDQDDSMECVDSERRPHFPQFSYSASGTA

CCN1CCN(Cc2ccc(NC(=O)c3ccc(C)c(/C=C/c4cnc5[nH]ccc5c4OC)c3)cc2C(F)(F)F)CC1
inhibition [1]: 100%
inhibition [2]: 100%
residual activity [3]: 81%
residual activity [4]: 35%
residual activity [5]: 83%
residual activity [6]: 13%
residual activity [7]: 2%
residual activity [8]: 25%

CCN1CCN(Cc2ccc(NC(=O)c3ccc(C)c(Oc4ccnc5[nH]ccc45)c3)cc2C(F)(F)F)CC1
inhibition [9]: 23%
inhibition [10]: -8.6%
inhibition [11]: 72.6%
inhibition [12]: 6.8%
inhibition [13]: 12.5%

CNc1cc(Oc2cc(C(=O)Nc3cc(N4CCN(C)CC4)cc(C(F)(F)F)c3)ccc2C)ncn1
inhibition [14]: 0.7%
